The values that follow come from patent publication US20040235855A1, “Phospholipase C inhibitors for use in treating inflammatory disorders” (priority 2003, published 2004).

SMILES strings stand for the structures.

For this test, the target named is T1, human PLC-β2 (Homo sapiens, UniProt Q00722).
T1 construct: made in house; host or cells: Sf9 cells (Spodoptera frugiperda), recombinant baculovirus
The test can be described thus: PLC assay using FlashPlates (96-well, immobilized [3H]PIP2 substrate). It counts as biochemical. The following applies: purified recombinant human PLC-β2 or cytosolic human PLC-β2; hydrolysis of [3H]PIP2. The text has this:
The hydrolysis of phosphatidylinositol-4,5-bisphosphate (PIP2) by a specific phospholipase C-β2 (PLC-β2) produces two intracellular messengers, diacylglycerol (DAG) and inositol 1,4,5-trisphosphate (IP3), which mediate the activation of protein kinase C and intracellular Ca^2+ release. A conventional organic solvent extraction method is widely used for PLC assays to isolate IP3 from the substrate PIP2. The conventional PLC-β2 assay, however is terminated by addition of acidified organic solvents and subsequent extraction and phase separation. […] Accordingly, a preferred method to test the compounds of the present invention, was developed utilizing a 96-well plate assay for PLC-β2 using immobilized radiolabeled substrate to quantitatively measure the reduction in the substrate level without a need for organic solvent extraction. The automated PLC-β2 assay described herein provides a convenient method for quantitative measurement of phospholipase C activities in a high throughput fashion. Ninety-six well Phospholipid FlashPlates were coated with 0.2 mL of 50 mM Tris/HCl (pH 7.4), 0.01% Ac-BSA and 50,000 cpm of […] (phosphatidylinositol-4,5-bisphosphate) at 4° C. for 72 h. The wells were aspirated and washed twice with PBS. The reactions were conducted directly in the wells in PLC reaction buffer containing 50 mM Tris/HCl (pH 7.2), 2.75 mM EDTA (pH 7.3), 80 mM KCl, 10 mM LiCl, 0.04% DOC and 2 mM CaCl2 in the absence or presence of the purified recombinant human PLC-β2 (prepared as described hereafter) or cytosolic human PLC-β2 from […]. Reduction of radioactivity was monitored by a Packard TopCount instrument (Packard Instrument Company, Conn., USA). […] The cells were grown in Grace's media supplemented with 10% (v/v) fetal bovine serum, 3.3 g/l yeastolate, 3.3 g/l lactalbumin hydrosylate, glutamine (6.4 mM final), 50 μg/ml gentamicin, and 50 μg/ml kanamycin. Suspension of Sf9 cells (1.0×10^6 cells/ml) were infected with 5 pfu/cell of recombinant baculovirus encoding PLC-β2 and incubated at 27° C. for 72 h. The cells were collected by centrifugation (500×g, 7 min, 4° C.) and disrupted by hypotonic lysis buffer containing 20 mM Tris/HCl, pH 7.4, 5 mM MgCl2, 2 mM EGTA, 200 μM PMSF, 200 μM benzamidine and 1 μM pepstatin A. The lysate was sonicated on ice and the nuclei and unbroken cells removed by centrifigation (500×g, 5 min, 4C.). The supernatant was recovered and clarified by centrifugation (34,000 rpm, 60 min, 4C.). The supernatant was used as a crude cytosolic fraction (Paterson, A., Boyer, J. L., Watts, V. J., Morris, A. J., Price, […]. (1995) Concentration of enzyme-dependent activation of PLC β1 and PLC β2 by Gα11 and βγ subunits. Cellular Signalling 7, 709-720). Crude cytosol prepared from Sf9 cells expressing PLC-β2 was purified initially by chromatography on a 10 ml column of Q-Sepharose FF, equilibrated in buffer A (25 mM HEPES, pH 7.2,2 mM DTT, 2 mM EDTA, 2 mM EGTA, 200 μM PMSF, 200 μM benzamidine, 1 μM pepstatin A containing 10 mM NaCl). The column was washed with 20 ml of equilibration buffer and eluted with a 200-ml gradient of 110-410 mM NaCl in buffer A. The fractions containing PLC activity were pooled and diluted with buffer A. The diluted enzyme was applied to a 4 ml column of heparin-SepharoseCL-6B equilibrated in buffer A and the column washed with 70 ml of buffer A. The column was eluted with 80 ml of gradient of 0-1.0 M NaCl in buffer A, the column eluate collected in 3 ml fractions. […]

T1 sequence (Q00722 whole entry): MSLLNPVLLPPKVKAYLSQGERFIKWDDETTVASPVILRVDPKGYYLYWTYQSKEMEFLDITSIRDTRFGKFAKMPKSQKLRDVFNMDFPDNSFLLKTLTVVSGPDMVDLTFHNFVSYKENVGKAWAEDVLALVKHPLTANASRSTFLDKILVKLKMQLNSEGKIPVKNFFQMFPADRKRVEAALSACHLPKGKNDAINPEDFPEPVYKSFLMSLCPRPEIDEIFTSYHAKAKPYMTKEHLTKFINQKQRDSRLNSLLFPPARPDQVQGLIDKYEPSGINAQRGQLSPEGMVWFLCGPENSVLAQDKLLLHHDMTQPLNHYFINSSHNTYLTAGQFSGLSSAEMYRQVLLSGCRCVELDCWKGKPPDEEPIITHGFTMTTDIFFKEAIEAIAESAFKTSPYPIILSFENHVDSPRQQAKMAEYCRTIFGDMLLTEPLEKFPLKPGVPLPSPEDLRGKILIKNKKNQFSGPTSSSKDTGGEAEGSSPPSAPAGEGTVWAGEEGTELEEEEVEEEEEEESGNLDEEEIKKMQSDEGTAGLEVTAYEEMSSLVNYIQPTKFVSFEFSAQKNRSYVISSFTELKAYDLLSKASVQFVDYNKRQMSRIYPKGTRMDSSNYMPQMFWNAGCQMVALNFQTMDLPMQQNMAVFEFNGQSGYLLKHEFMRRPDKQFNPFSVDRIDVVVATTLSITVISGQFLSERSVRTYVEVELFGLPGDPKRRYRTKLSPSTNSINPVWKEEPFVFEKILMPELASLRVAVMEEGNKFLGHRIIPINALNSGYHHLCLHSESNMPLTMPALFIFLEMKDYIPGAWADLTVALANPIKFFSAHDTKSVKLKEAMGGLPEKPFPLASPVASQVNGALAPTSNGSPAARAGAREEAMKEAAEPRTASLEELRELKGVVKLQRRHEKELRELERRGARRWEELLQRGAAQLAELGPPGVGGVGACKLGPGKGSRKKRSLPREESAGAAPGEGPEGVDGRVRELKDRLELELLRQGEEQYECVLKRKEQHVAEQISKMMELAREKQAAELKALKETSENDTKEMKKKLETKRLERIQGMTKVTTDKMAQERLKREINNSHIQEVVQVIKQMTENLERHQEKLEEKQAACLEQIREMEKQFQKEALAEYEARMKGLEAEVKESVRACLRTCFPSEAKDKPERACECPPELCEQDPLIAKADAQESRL

On to `O=C(Nc1ccccc1)Nc1cc(C(=O)N2CCNCC2)ccc1N1CCN(C(c2ccccc2)c2ccc(Cl)cc2)CC1` (stereo not shown) [Cpd 60, N-[2-[4-[(4-chlorophenyl)phenylmethyl]-1-piperazinyl]-5-(1-piperazinylcarbonyl)phenyl]-N′-phenyl-urea], for which the half-maximal inhibitory concentration (IC50) was determined as 0.95 µM.
The value for `O=C(/C=C/c1ccccc1)NC(=O)Nc1cc(C(=O)N2CCNCC2)ccc1N1CCN(C(c2ccccc2)c2ccccc2)CC1` [Cpd 61, N-[2-[4-(diphenylmethyl)-1-piperazinyl]-5-(1-piperazinylcarbonyl)phenyl]-N′-[(2E)-1-oxo-3-phenyl-2-propenyl]-urea] was 4.3 µM.
Regarding `CC(C)(C)NC(=O)Nc1cc(C(=O)N2CCNCC2)ccc1N1CCN(C(c2ccccc2)c2ccccc2)CC1` [Cpd 62, N-(1,1-dimethylethyl)-N′-[2-[4-(diphenylmethyl)-1-piperazinyl]-5-(1-piperazinylcarbonyl)phenyl]-urea], the IC50 is above 25 µM.
Turning to `O=C(Nc1cc(C(=O)N2CCNCC2)ccc1N1CCN(C(c2ccccc2)c2ccccc2)CC1)NC1CCCC1` [Cpd 63, N-cyclopentyl-N′-[2-[4-(diphenylmethyl)-1-piperazinyl]-5-(1-piperazinylcarbonyl)phenyl]-urea], the IC50 is 13.7 µM.
The value for `C[C@H](NC(=O)Nc1cc(C(=O)N2CCNCC2)ccc1N1CCN(C(c2ccccc2)c2ccccc2)CC1)c1ccccc1` [Cpd 64, N-[2-[4-(diphenylmethyl)-1-piperazinyl]-5-(1-piperazinylcarbonyl)phenyl]-N′-[(1S)-1-phenylethyl]-urea] was above 25 µM.
The result for `O=C(c1ccc(N2CCN(C(c3ccccc3)c3ccccc3)CC2)c(NC(=S)NCc2ccccc2)c1)N1CCNCC1` [Cpd 65, N-[2-[4-(diphenylmethyl)-1-piperazinyl]-5-(1-piperazinylcarbonyl)phenyl]-N′-(phenylmethyl)thiourea] reads 6.2 µM.
The result for `CC(C)NC(=O)Nc1cc(C(=O)N2CCNCC2)ccc1N1CCN(C(c2ccccc2)c2ccccc2)CC1` [Cpd 66, N-[2-[4-(diphenylmethyl)-1-piperazinyl]-5-(1-piperazinylcarbonyl)phenyl]-N′-(1-methylethyl)urea] reads above 25 µM; that for `O=C(NC(=S)Nc1cc(C(=O)N2CCNCC2)ccc1N1CCN(C(c2ccccc2)c2ccccc2)CC1)c1ccc(Cl)cc1` [Cpd 67, N-(4-chlorobenzoyl)-N′-[2-[4-(diphenylmethyl)-1-piperazinyl]-5-(1-piperazinylcarbonyl)phenyl]-thiourea], 3.4 µM.
As for `NC(=O)c1ccc(N2CCN(C(c3ccncc3)c3ccc(F)cc3)CC2)c(NC(=O)Nc2ccccc2)c1` (stereo not shown) [Cpd 77, 4-[4-[(4-fluorophenyl)-4-pyridinylmethyl]-1-piperazinyl]-3-[[(phenylamino)carbonyl]amino]-benzamide], the IC50 is around 10 µM.
The value for `NC(=O)c1ccc(N2CCN(C(c3ccncc3)c3ccc(F)cc3)CC2)c(NC(=O)NC2CCCCC2)c1` (stereo not shown) [Cpd 78] was above 10 µM; that for `NC(=O)c1ccc(N2CCCN(C(c3ccncc3)c3ccc(F)cc3)CC2)c(NC(=O)Nc2ccccc2)c1` (stereo not shown) [Cpd 79, 4-[4-[(4-fluorophenyl)-4-pyridinylmethyl]hexahydro-1H-1,4-diazepin-1-yl]-3-[[(phenylamino)carbonyl]amino]-benzamide] was above 10 µM.
For the molecule `NC(=O)c1ccc(N2CCCN(C(c3ccncc3)c3ccc(F)cc3)CC2)c(NC(=O)NC2CCCCC2)c1` (stereo not shown) [Cpd 80, 3-[[(cyclohexylamino)carbonyl]amino]-4-[4-[(4-fluorophenyl)-4-pyridinylmethyl]hexahydro-1H-1,4-diazepin-1-yl]-benzamide], the 50% inhibitory concentration (IC50) is above 10 µM.
With `NC(=O)c1ccc(N2CCCN(C(c3ccc(F)cc3)c3ccc(F)cc3)CC2)c(NC(=O)Nc2ccccc2)c1` [Cpd 81, 4-[4-[bis(4-fluorophenyl)methyl]hexahydro-1H-1,4-diazepin-1-yl]-3-[[(phenylamino)carbonyl]amino]-benzamide], the 50% inhibitory concentration (IC50) was around 10 µM.

A word on the IC50: it is the concentration needed to halve the response being measured.
